Experimental data from ChEMBL document CHEMBL4673260, “Pyridine alkaloids with activity in the central nervous system” (Bioorg Med Chem, 2020).

Columns and labels:
[1] = target: Endothelin receptor type B (Homo sapiens, UniProt P24530); assay: Displacement of [3H]nicotine from Endothelin receptor type B (unknown origin)
[2] = target: T1, Neuronal acetylcholine receptor; alpha4/beta2 (Rattus norvegicus, UniProt P09483+P12390)
Description: Agonist activity at alpha4beta2 nAChR in rat thalamic synaptosomes assessed as increase in 86Rb efflux

[3] = target: D(3) dopamine receptor (Homo sapiens, UniProt P35462); assay: Displacement of [3H]nicotine from dopamine D3 receptor (unknown origin)
[4] = target: Muscarinic acetylcholine receptor M3 (Homo sapiens, UniProt P20309); assay: Displacement of [3H]nicotine from muscarinic M3 receptor (unknown origin)
Chain of Muscarinic acetylcholine receptor M3 (P20309 whole entry): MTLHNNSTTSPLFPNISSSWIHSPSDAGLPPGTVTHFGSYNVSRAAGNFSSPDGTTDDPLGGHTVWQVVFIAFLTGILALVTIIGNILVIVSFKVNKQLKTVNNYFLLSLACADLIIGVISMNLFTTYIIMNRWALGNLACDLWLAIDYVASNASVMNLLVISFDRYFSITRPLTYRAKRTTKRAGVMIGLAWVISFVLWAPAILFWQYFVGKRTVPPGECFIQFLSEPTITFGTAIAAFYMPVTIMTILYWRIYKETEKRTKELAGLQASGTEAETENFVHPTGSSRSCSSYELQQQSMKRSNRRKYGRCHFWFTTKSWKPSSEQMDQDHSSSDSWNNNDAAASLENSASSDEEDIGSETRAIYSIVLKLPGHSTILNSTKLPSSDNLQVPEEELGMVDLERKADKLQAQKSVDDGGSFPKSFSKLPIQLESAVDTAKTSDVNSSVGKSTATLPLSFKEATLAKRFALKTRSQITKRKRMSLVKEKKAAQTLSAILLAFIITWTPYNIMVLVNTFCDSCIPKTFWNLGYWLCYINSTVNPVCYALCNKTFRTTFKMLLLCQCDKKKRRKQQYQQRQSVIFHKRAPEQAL

[5] = tested on: Rattus norvegicus; assay: Memory enhancing effect in Sprague-Dawley rat model of ibotenic-acid-induced impairment of forebrain cholinergic projection system assessed as improvement in reference memory at 0.36 to 1.4 micromol/kg, po by radial arm maze test relative to control; format: functional; details: dose 0.36-1.4 µmol/kg
[6] = target: Histamine H3 receptor (Homo sapiens, UniProt Q9Y5N1); assay: Displacement of [3H]nicotine from Histamine H3 receptor (unknown origin)
[7] = tested on: Rattus norvegicus; assay: Memory enhancing effect in rat model of mecamylamine-induced amnesia assessed as decrease in latency to find platform at 0.3 to 3 micromol/kg, po by water-navigation test relative to control; format: functional; parameters: scale not given: the % may be the effect or the level left; details: dose 0.3-3 µmol/kg; at 0.3 to 3 µmol/kg
[8] = target: Muscarinic acetylcholine receptor M2 (Homo sapiens, UniProt P08172); assay: Displacement of [3H]nicotine from muscarinic M2 receptor (unknown origin)
[9] = Displacement of [3H]nicotine from angiotensin II receptor (unknown origin); parameters: species or system Homo sapiens
[10] = Acute toxicity in po dosed mouse administered as repeated dose for 28 days; format: organism-based; details: in vivo, time 28 day
[11] = Displacement of [3H]nicotine from Leukotriene B4 receptor (unknown origin); parameters: species or system Homo sapiens
[12] = Displacement of [3H]nicotine from dopamine D4.2 receptor (unknown origin); parameters: species or system Homo sapiens
[13] = Acute toxicity in po dosed mouse administered as single dose for 28 days; format: organism-based; details: in vivo, time 28 day
[14] = target: Cholecystokinin receptor type A (Homo sapiens, UniProt P32238); assay: Displacement of [3H]nicotine from cholecystokinin receptor type A (unknown origin)
Chain of Cholecystokinin receptor type A (P32238 whole entry): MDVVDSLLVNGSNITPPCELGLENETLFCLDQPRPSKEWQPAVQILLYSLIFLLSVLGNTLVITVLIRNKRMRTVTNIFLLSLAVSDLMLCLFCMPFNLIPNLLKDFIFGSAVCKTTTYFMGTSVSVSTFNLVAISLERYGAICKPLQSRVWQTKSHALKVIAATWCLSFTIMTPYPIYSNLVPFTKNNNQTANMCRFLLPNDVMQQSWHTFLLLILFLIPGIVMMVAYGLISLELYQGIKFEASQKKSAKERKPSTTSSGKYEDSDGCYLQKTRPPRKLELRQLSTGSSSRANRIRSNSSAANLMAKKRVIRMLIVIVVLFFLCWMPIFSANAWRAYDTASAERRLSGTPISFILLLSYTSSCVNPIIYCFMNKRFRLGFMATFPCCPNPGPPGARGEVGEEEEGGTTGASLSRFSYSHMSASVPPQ

[15] = target: Muscarinic acetylcholine receptor M1 (Homo sapiens, UniProt P11229); assay: Displacement of [3H]nicotine from muscarinic M1 receptor (unknown origin)
[16] = In vivo agonist activity at nAChR in rat assessed as acetylcholine level in cortex at 3.6 micromol/kg, sc by microdialysis relative to control; format: functional; details: dose 3.6 µmol/kg
[17] = Displacement of [3H]nicotine from sodium channel site2 (unknown origin); parameters: species or system Homo sapiens
[18] = species: Rattus norvegicus; assay: Agonist activity at nAChR in rat striatal synaptosomes assessed as [3H]dopamine release relative to tetramethylammonium; format: subcellular; details: Striatum, filed as agonist
[19] = Displacement of [3H]nicotine from neurokinin receptor (unknown origin); parameters: species or system Homo sapiens
[20] = Acute toxicity in po dosed dog administered as single dose for 28 days; format: organism-based, Canis lupus familiaris; details: in vivo, time 28 day
[21] = target: Gastrin/cholecystokinin type B receptor (Homo sapiens, UniProt P32239); assay: Displacement of [3H]nicotine from cholecystokinin receptor type B (unknown origin)
[22] = target: B2 bradykinin receptor (Homo sapiens, UniProt P30411); assay: Displacement of […] from B2 bradykinin receptor (unknown origin)
[23] = target: T2, Neuronal acetylcholine receptor; alpha4/beta2 (Rattus norvegicus) (UniProt P09483+P12390); assay: Agonist activity at alpha4beta2 nAChR in rat thalamic synaptosomes assessed as 86Rb efflux relative to tetramethylammonium; format: subcellular; details: Thalamus, filed as agonist
[24] = target: T1, Neuronal acetylcholine receptor; alpha4/beta2; assay: Inhbition of [3H] nicotine binding to rat brain alpha4beta2 nAChR
[25] = In vivo agonist activity at nAChR in rat assessed as nor-epinephrine level in cortex at 3.6 micromol/kg, sc by microdialysis relative to control; format: functional; details: dose 3.6 µmol/kg
[26] = In vivo agonist activity at nAChR in rat assessed as dopamine level in cortex at 3.6 micromol/kg, sc by microdialysis relative to control; format: functional; details: dose 3.6 µmol/kg
[27] = target: 5-hydroxytryptamine receptor 1A (Homo sapiens, UniProt P08908); assay: Displacement of […] from 5-hydroxytryptamine receptor 1A (unknown origin)
Chain of 5-hydroxytryptamine receptor 1A (P08908 whole entry): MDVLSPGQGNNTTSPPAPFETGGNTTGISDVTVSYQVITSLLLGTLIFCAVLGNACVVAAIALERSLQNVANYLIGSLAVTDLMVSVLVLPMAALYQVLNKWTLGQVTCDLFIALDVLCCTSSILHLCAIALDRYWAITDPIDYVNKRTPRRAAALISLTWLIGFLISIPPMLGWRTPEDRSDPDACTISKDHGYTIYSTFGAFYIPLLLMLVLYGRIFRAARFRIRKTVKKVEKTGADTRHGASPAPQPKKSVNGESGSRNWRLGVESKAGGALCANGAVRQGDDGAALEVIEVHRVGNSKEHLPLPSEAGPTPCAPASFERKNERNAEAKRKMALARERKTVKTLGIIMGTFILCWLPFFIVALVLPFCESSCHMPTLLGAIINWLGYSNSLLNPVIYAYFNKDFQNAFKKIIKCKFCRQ

[28] = target: Thromboxane A2 receptor (Homo sapiens, UniProt P21731); assay: Displacement of [3H]nicotine from Thromboxane A2 (unknown origin)
[29] = target: T2, Neuronal acetylcholine receptor; alpha4/beta2 (Rattus norvegicus); assay: Agonist activity at rat alpha4beta2 expressed in Xenopus oocytes assessed as peak activation at 100 uM relative to control; format: cell-based; details: Oocyte, filed as agonist
[30] = Acute toxicity in po dosed dog administered as repeated dose for 28 days; format: organism-based, Canis lupus familiaris; details: in vivo, time 28 day
[31] = target: 5-hydroxytryptamine receptor 2A (Homo sapiens, UniProt P28223); assay: Displacement of […] from 5-hydroxytryptamine receptor 2A (unknown origin)
Chain of 5-hydroxytryptamine receptor 2A (P28223 whole entry): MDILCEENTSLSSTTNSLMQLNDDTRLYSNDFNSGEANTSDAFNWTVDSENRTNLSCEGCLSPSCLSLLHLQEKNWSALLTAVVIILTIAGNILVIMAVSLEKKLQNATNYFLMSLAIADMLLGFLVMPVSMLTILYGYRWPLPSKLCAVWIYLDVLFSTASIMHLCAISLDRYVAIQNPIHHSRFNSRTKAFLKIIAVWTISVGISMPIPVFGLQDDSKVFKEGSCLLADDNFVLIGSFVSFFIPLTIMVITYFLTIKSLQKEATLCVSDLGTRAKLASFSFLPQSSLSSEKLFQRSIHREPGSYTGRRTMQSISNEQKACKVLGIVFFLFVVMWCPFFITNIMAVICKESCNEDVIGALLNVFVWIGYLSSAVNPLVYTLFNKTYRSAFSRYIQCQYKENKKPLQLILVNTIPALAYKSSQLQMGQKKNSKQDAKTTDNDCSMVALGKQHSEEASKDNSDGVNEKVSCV

[32] = target: Endothelin-1 receptor (Homo sapiens, UniProt P25101); assay: Displacement of [3H]nicotine from Endothelin receptor type A (unknown origin)
Chain of Endothelin-1 receptor (P25101 whole entry): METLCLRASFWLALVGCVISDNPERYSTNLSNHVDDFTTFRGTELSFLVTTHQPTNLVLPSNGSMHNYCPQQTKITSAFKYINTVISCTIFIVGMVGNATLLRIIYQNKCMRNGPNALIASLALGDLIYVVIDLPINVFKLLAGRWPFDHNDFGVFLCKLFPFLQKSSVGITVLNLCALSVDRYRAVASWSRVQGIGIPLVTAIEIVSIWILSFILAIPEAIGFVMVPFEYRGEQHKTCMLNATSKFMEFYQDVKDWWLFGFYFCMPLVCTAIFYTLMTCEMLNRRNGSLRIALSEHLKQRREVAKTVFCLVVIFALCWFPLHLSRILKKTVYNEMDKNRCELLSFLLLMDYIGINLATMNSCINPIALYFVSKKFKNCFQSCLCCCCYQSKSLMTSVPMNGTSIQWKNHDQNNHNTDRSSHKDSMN

[33] = target: Neuropeptide Y receptor type 2 (Homo sapiens, UniProt P49146); assay: Displacement of [3H]nicotine from NPY2R (unknown origin)
[34] = tested on: Rattus norvegicus; assay: Cognitive enhancing effect in Wistar rat assessed as reversal of scopolamine-induced amnesia at 0.6 micromol/kg, sc by passive-avoidance test relative to control; format: functional; details: dose 0.6 µmol/kg
[35] = In vivo agonist activity at nAChR in rat assessed as serotonin level in cortex at 3.6 micromol/kg, sc by microdialysis relative to control; format: functional; details: dose 3.6 µmol/kg
[36] = target: 5-hydroxytryptamine receptor 3A (Homo sapiens, UniProt P46098); assay: Displacement of […] from 5-hydroxytryptamine receptor 3A (unknown origin)
Chain of 5-hydroxytryptamine receptor 3A (P46098 whole entry): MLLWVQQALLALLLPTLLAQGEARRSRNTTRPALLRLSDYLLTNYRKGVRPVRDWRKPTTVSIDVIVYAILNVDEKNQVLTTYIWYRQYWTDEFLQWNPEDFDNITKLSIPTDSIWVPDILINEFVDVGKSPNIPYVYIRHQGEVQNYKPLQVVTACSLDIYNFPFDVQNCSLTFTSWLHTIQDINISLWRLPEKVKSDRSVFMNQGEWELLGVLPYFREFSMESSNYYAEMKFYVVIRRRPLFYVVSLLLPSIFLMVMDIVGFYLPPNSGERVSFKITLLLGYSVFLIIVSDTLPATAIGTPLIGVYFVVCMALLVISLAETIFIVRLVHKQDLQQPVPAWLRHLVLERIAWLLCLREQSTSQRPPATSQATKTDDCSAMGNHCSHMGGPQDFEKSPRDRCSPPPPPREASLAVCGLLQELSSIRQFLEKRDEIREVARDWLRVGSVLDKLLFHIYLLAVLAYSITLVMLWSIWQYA

[37] = target: Glutamate [NMDA] receptor; assay: Displacement of [3H]nicotine from NMDA receptor (unknown origin); format: protein-complex assay, Homo sapiens
[38] = Neuroprotective activity in rat neuron assessed as glutamic acid induced intracellular calcium level at 0.5 ug/ml preincubated for 5 mins followed by glutamic acid stimulation and measured for 30 mins (reference value: 305%); format: functional; details: time 35 min
[39] = Neuroprotective activity in rat neuron assessed as glutamic acid induced intracellular calcium level at 3 ug/ml preincubated for 5 mins followed by glutamic acid stimulation and measured for 30 mins (reference value: 305%); format: functional; details: time 35 min
[40] = Neuroprotective activity in rat neuron assessed as NMDA-induced intracellular calcium level at 1 ug/ml preincubated for 5 mins followed by glutamic acid stimulation and measured for 20 mins (reference value: 235%); format: functional; details: time 25 min
[41] = Neuroprotective activity in rat neuron assessed as glutamic acid induced intracellular calcium level at 1 ug/ml preincubated for 5 mins followed by glutamic acid stimulation and measured for 30 mins (reference value: 305%); format: functional; details: time 35 min
[42] = target: Acetylcholinesterase (Bos taurus, UniProt P23795)
[43] = target: GABA-A receptor alpha-1/beta-1 (Bos taurus, UniProt P08219+P08220)
Description: Competitive inhibition of bovine GABAA alpha1beta1 expressed in Xenopus laevis oocytes

[44] = Displacement of [3H]-(-)-nicotine from rat cerebral cortex nAChR incubated for 60 mins by liquid scintillation spectrometry
[45] = species: Mus musculus; assay: animal or person
Description: Antinociceptive activity against mecamylamine-treated mouse

[46] = target: Neuronal acetylcholine receptor subunit alpha-7 (Homo sapiens, UniProt P36544)
Chain of Neuronal acetylcholine receptor subunit alpha-7 (Homo sapiens, UniProt P36544) (P36544 whole entry): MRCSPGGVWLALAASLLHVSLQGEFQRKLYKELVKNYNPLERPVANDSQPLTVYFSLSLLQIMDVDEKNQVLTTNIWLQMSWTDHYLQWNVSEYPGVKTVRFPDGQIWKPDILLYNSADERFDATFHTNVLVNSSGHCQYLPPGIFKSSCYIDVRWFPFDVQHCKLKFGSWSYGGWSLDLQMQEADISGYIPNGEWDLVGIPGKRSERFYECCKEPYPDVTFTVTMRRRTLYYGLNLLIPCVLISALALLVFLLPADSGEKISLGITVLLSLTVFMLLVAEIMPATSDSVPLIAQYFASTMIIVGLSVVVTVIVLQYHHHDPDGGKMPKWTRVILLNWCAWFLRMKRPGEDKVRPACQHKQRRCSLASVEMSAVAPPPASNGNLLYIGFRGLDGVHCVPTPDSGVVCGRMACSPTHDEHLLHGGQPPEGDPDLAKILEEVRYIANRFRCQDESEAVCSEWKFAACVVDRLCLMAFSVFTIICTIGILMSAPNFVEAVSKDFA
Description: Displacement of [125I]alpha-bungarotoxin from human alpha7 nAChR expressed in K28 cell membrane

[47] = Toxicity in iv dosed rat; format: organism-based; details: in vivo
[48] = species: Mus musculus; assay: animal or person; remark: listed apart in the source
Description: Antinociceptive activity in naloxone treated mouse assessed as induction of Straub-tail response

[49] = species: Mus musculus; assay: animal or person; remark: listed apart in the source
Description: Antinociceptive activity in mouse

[50] = Antagonist activity at 5HT1 in Wistar rat stomach fundus strip assessed as inhibition of 5-hydroxy-tryptamine evoked contraction preincubated for 20 mins followed by 5-HT addition; format: tissue-based
[51] = target: T1, Neuronal acetylcholine receptor; alpha4/beta2; remark: listed apart in the source
Description: Agonist activity at rat alpha4beta2 nAChR

[52] = target: T3, Neuronal acetylcholine receptor subunit alpha-7 (Rattus norvegicus, UniProt Q05941)
T3 sequence (Q05941 whole entry): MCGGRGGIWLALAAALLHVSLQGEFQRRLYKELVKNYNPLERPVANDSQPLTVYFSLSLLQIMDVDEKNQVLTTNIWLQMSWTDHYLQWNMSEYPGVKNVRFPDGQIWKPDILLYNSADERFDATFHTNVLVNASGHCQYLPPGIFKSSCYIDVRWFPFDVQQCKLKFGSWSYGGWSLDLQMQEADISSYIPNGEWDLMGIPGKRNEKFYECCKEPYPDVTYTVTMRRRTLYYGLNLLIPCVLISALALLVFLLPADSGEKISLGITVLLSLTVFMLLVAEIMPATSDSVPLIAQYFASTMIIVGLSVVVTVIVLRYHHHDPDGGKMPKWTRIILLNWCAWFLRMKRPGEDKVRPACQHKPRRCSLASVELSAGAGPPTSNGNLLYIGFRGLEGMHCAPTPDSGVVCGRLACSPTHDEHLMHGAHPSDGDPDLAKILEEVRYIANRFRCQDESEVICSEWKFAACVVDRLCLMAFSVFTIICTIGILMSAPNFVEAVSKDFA
Description: Agonist activity at rat alpha7 nAChR

[53] = target: T1, Neuronal acetylcholine receptor; alpha4/beta2; assay: Binding affinity to rat alpha4beta2 nAChR; format: protein-complex assay
[54] = target: T3, Neuronal acetylcholine receptor subunit alpha-7; remark: listed apart in the source
Description: Binding affinity to rat alpha7 nAChR

[55] = target: T2, Neuronal acetylcholine receptor; alpha4/beta2 (Rattus norvegicus); assay: Potency index, ratio of nicotine EC50 to test compound EC50 for agonist activity at rat alpha4beta2 nAChR; format: protein-complex assay
[56] = target: Neuronal acetylcholine receptor subunit alpha-7 (Rattus norvegicus) (UniProt Q05941); assay: Potency index, ratio of nicotine EC50 to test compound EC50 for rat alpha7 nAChR
Chain of Neuronal acetylcholine receptor subunit alpha-7 (Rattus norvegicus) (Q05941 whole entry): as above

[57] = target: Neuronal acetylcholine receptor subunit alpha-7 (Rattus norvegicus) (UniProt Q05941); assay: Potency index, ratio of nicotine Ki to test compound Ki for rat alpha7 nAChR

T1 sequence (P09483 whole entry): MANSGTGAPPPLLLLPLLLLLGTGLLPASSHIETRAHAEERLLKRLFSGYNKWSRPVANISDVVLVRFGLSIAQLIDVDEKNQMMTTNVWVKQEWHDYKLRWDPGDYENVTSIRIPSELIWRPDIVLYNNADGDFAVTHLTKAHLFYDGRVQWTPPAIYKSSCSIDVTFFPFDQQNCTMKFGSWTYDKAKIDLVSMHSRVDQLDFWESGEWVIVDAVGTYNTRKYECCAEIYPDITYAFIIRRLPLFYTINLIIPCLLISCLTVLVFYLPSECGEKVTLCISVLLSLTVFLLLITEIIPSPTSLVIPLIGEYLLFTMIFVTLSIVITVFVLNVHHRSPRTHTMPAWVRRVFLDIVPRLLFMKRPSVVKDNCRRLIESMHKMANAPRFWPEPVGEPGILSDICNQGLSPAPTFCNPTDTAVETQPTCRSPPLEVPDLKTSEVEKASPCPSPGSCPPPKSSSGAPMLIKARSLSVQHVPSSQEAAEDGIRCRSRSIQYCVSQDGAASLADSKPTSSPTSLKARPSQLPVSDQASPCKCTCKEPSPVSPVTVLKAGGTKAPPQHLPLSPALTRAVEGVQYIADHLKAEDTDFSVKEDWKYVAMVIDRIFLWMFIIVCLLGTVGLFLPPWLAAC
T1 sequence (P12390 whole entry): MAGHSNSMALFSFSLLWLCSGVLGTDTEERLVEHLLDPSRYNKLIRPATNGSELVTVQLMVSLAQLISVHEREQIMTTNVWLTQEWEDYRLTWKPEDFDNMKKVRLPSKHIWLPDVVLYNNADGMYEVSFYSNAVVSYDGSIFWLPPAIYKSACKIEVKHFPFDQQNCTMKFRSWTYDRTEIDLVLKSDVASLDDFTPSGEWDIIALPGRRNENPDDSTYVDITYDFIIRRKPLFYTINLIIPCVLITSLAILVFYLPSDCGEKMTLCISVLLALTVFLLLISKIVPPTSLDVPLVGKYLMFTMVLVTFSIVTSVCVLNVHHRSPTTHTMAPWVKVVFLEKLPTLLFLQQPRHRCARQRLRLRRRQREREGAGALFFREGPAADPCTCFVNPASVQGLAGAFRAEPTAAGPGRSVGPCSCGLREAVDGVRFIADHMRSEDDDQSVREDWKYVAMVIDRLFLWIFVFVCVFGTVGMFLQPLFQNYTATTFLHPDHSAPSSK

CN(C)CC/C=C/c1cccnc1
IC50 [1]: > 10 µM | EC50 [2]: 0.732 µM | IC50 [3]: > 10 µM | IC50 [4]: > 10 µM | fold change (FC) [5]: 2 | IC50 [6]: > 10 µM | Activity [7]: 40% | IC50 [8]: > 10 µM | IC50 [9]: > 10 µM | LD50 at 672 h [10]: 1.8e+06 µmol/kg | IC50 [11]: > 10 µM | IC50 [12]: > 10 µM | LD50 at 672 h [13]: 1.8e+06 µmol/kg | IC50 [14]: > 10 µM | IC50 [15]: > 10 µM | Activity [16]: 190% | IC50 [17]: > 10 µM | Emax [18]: 81% | IC50 [19]: > 10 µM | LD50 at 672 h [20]: 1.8e+06 µmol/kg | IC50 [21]: > 10 µM | IC50 [22]: > 10 µM | Emax [23]: 79% | Ki [24]: 0.026 µM | Activity [25]: 150% | Activity [26]: 150% | IC50 [27]: > 10 µM | IC50 [28]: > 10 µM | Activity [29]: 492% | LD50 at 672 h [30]: 1.8e+06 µmol/kg | IC50 [31]: > 10 µM | IC50 [32]: > 10 µM | IC50 [33]: > 10 µM | Activity [34]: 50% | Activity [35]: 170% | IC50 [36]: > 10 µM | IC50 [37]: > 10 µM

O=C([O-])c1ccc[n+](CCOC(=O)c2ccc[nH]2)c1
Activity [38]: 58.1% | Activity [39]: 25.1% | Activity [40]: 63.5% | Activity [41]: 65.4%

C[n+]1cccc(C(=O)[O-])c1 [TRIGONELLINE]
IC50 [42]: 233 µM | Ki [43]: 0.013 µM

Clc1ccc(C2CC3CCC2N3)cn1 (stereo in doubt; (+)) [EPIBATIDINE]
IC50 [44]: 0.0001 µM | ED50 [45]: 0.289 mg/kg | Ki [46]: 0.0022 µM | LD50 [47]: < 0.125 µmol/kg | ED50 [48]: 0.02 mg/kg | ED50 [49]: 0.0136 mg/kg

O=C([O-])c1ccc[n+](CCOC(=O)c2cc(Br)c[nH]2)c1
IC50 [50]: 80 µM

c1cncc(C2=NCCCC2)c1 [ANABASEINE]
EC50 [51]: 4.2 µM | EC50 [52]: 6.7 µM | Ki [53]: 0.032 µM | Ki [54]: 0.058 µM | Ratio EC50 [55]: 3 | Ratio EC50 [56]: 7 | Ratio Ki [57]: 7
